Data: patent US10383834B2, “Reduced dose intravenous acetaminophen” (MALLINCKRODT HOSPITAL PRODUCTS IP LIMITED, priority 2007, dated 2019)

Columns and labels:
[1] = Subject Global Evaluations in Phase III open-label multi-day study of IV acetaminophen (4 point categorical rating scale); assay type: in vivo, human; conditions: for Subject Global Assessment, level of satisfaction with the study treatments, difference versus control group: any of the assessment points
Procedure: A Phase III, open-label, prospective, multi-center, repeated dose, randomized, multi-day safety and efficacy study was conducted in 213 subjects. The subjects were randomized as follows: 92 subjects to a q6 group (1 g of IV acetaminophen every 6 hours), 91 subjects to a q4 group (650 mg of IV acetaminophen every 4 hours), and 28 subjects to a standard of care control group, which could include oral acetaminophen, but no IV acetaminophen. […] The primary endpoint was an assessment of safety using spontaneous adverse event reporting and daily liver enzymes. Efficacy evaluations were also performed. All analyses of efficacy were conducted on the modified intent-to-treat population separately for the two indications (acute pain and fever). Subjects' Global Evaluations were summarized descriptively (n, mean, SD, median, minimum, and maximum) by treatment group for each study day and for overall assessments. Summary statistics were also provided for each site. Comparisons of efficacy endpoints between the following pairs of treatment groups were investigated using two-sided tests at the 5% level of significance: • IV acetaminophen 1 g versus IV acetaminophen 650 mg • IV acetaminophen 1 g versus standard of care treatment • IV acetaminophen 650 mg versus standard of care treatment A one-way analysis of variance (ANOVA) model with treatment group as the factor was used to test the treatment difference between these pairs. All groups were included in this analysis model. The p-values from the ANOVA model were presented along with the summary statistics. […] A one-way ANOVA model with treatment group as the factor was used to test the treatment difference between each treatment pair: • IV acetaminophen 1 g q6h versus IV acetaminophen 650 mg […] • IV acetaminophen 1 g q6h versus standard of care treatment (Control) • IV acetaminophen 650 mg […] versus standard of care treatment (Control) All endpoints were tested at the 0.05 significance level (two-sided).

[2] = Safety assessment in Phase III open-label multi-day study (adverse event reporting, daily liver enzymes, laboratory, vital signs); assay type: in vivo, human; conditions: for Tolerability: up to 5 days
Procedure: A Phase III, open-label, prospective, multi-center, repeated dose, randomized, multi-day safety and efficacy study was conducted in […] subjects. The subjects were randomized as follows: 92 subjects to a q6 group (1 g of IV acetaminophen every 6 hours), 91 subjects to a q4 group (650 mg of IV acetaminophen every 4 hours), and 28 subjects to a standard of care control group, which could include oral acetaminophen, but no IV acetaminophen. Subjects who completed 5 days of study treatment included 63 in the q6 group, 59 in the q4 group and 26 in the control group. The primary endpoint was an assessment of safety using spontaneous adverse event reporting and daily liver enzymes. Efficacy evaluations were also performed.
All analyses of safety were conducted on the safety population.
Percentage of subjects withdrawn due to adverse event, percentage of subjects with adverse events (AEs) or serious adverse events (SAEs), and percentage of subjects with clinically meaningful changes in laboratory parameters were summarized.
All adverse events and serious adverse events were coded according to the Medical Dictionary for Regulatory Activities (MedDRA), Version 10.0. […] Liver function test abnormalities were graded using the Common Terminology Criteria for Adverse Events.
For each clinical laboratory parameter, descriptive statistics (n, mean, standard deviation, median, and range) were tabulated for baseline and final values. Change from baseline was tabulated for those subjects who had both baseline and final values. Liver function tests were also evaluated using values that were normalized to the upper limit of normal values for the local laboratory.
A shift table was prepared to present the shift in baseline clinical laboratory values that were clinically relevantly high or low at baseline and/or final measurement.
Descriptive statistics (n, mean, standard deviation, median, and range) were tabulated for changes in vital signs from baseline to final measurement.

SMILES: CC(=O)Nc1ccc(O)cc1 [IV acetaminophen, acetaminophen]
- Subject Global Assessment, level of satisfaction with the side effects related to study treatments, mean rating ([1]; 650 mg q4h IV, day 4, scale 0-3, control 2.2, p=0.1162): 2.5
- Subject Global Assessment, level of satisfaction with the side effects related to study treatments, mean rating ([1]; 650 mg q4h IV, day 5 24 h lookback, scale 0=poor to 3=excellent, control 2.0, p=0.0167): 2.4
- Subject Global Assessment, level of satisfaction with the side effects related to study treatments, mean rating ([1]; 650 mg q4h IV, end of day 5 prior to discharge 24 h lookback, scale 0-3, control 2.0, p=0.0129): 2.4
- Efficacy conclusion based upon the global satisfaction ratings ([1]; 650 mg q4h group): efficacious
- Subject Global Assessment, level of satisfaction with the study treatments, difference versus control group ([1]; 650 mg q6h group (so in the source) versus standard of care control): no statistically significant differences
- Subject Global Assessment, level of satisfaction with the side effects related to study treatments, mean rating ([1]; 1 g q6h IV, day 4, scale 0-3, control 2.2, p=0.0744): 2.5
- Subject Global Assessment, level of satisfaction with the side effects related to study treatments, mean rating ([1]; 1 g q6h IV, day 5 24 h lookback, scale 0-3, control 2.0, p=0.0062): 2.4
- Subject Global Assessment, level of satisfaction with the side effects related to study treatments, mean rating ([1]; 1 g q6h IV, end of day 5 prior to discharge 24 h lookback, scale 0-3, control 2.0, p=0.0073): 2.5
- Efficacy conclusion based upon the global satisfaction ratings ([1]; 1 g q6h group): efficacious
- Subject Global Assessment, level of satisfaction with the study treatments, difference versus control group ([1]; 1 g q6h group versus standard of care control): no statistically significant differences
- Subject Global Assessments (study treatments or side effects), difference between the two active treatment groups ([1]; 1 g q6h versus 650 mg q4h, daily 24 h lookback day 2 to end of day 5): no statistically significant differences
- Tolerability ([2]; 650 mg dose group (q4h)): well tolerated
- Tolerability ([2]; 1000 mg dose group (q6h)): well tolerated
- Frequency of liver enzyme elevations seen in the treatment groups ([2]; between treatment groups, includes alanine aminotransferase and aspartate aminotransferase): comparable
- Frequency of serious, severe, related, or overall treatment emergent adverse events (TEAEs), difference between the treatment groups ([2]; q6 (1 g), q4 (650 mg) and standard of care control groups): no clinically relevant differences
